Bounds are passed on as bounds.

Assay type in all cases: cell-based
One experiment concerns the target T1, AR protein (Homo sapiens, UniProt P10275, T878A).
T1 construct: host or cells: LNCaP FGC
T1 sequence (P10275 1-920 T878A): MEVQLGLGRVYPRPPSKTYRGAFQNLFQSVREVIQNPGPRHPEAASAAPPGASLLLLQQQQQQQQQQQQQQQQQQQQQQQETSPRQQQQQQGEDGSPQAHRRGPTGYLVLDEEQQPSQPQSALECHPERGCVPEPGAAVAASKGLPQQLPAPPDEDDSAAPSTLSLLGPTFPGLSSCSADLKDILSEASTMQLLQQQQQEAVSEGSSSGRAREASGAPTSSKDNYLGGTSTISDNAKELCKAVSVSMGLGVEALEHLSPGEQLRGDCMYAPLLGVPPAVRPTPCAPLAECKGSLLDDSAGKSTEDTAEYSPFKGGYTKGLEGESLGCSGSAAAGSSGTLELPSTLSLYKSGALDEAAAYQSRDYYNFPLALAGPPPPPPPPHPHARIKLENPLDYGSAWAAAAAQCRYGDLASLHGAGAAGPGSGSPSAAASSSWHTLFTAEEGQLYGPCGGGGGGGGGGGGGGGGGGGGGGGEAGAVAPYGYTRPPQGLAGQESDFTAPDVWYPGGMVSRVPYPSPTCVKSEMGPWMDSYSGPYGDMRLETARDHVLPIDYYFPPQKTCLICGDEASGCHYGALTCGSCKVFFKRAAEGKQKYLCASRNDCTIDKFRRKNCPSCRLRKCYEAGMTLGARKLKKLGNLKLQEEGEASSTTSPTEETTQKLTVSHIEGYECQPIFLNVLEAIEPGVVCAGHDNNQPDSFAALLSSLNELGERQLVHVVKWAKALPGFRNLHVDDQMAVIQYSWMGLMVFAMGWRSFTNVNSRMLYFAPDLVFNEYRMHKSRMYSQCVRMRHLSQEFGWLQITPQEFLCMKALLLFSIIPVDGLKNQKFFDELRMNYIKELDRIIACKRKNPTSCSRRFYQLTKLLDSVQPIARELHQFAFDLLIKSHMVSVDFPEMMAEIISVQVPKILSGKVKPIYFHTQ
Description: AR protein degradation in LNCaP cells (Western blot). The settings on record: 8 hours; for percent AR protein degradation at a fixed concentration at 0.01 µM / Degradation of AR protein in LNCaP cells, 10 nM (%): 10 nM; for percent AR protein degradation at a fixed concentration at 0.1 µM / Degradation of AR protein in LNCaP cells, 100 nM (%): 100 nM. An outline of the steps: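 AR degradation rate derived from Western blot band densitometry, referenced to GAPDH, using total lysates of LNCaP cells treated 8 h with compound versus solvent control. Detection used infrared dual-color imaging after SDS-PAGE and PVDF transfer.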
On the technique in general: A western blot detects proteins with antibodies after separation by electrophoresis.

In the next experiment the test system is LNCaP cells. The experiment is described as follows: Inhibition of LNCaP cell proliferation (WST-8). The conditions noted are these: Homo sapiens, LNCaP FGC cells, 96 hours. The method in brief:
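WST-8 absorbance at 450 nm measured proliferation after 96 h of compound exposure at 37 °C, 5% CO2. Dosing used nine 5-fold dilutions from a 10 µM top final concentration, applied to cells cultured overnight beforehand.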
On the technique in general: Tetrazolium assays rely on reduction of a dye to a coloured formazan, in cell work by metabolically active cells.

For the next experiment, the system named is VCaP cells. Description: Inhibition of VCaP cell proliferation (WST-8). The settings on record: Homo sapiens, 168 hours. The method in brief:
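Proliferation was read on day 9 as WST-8 absorbance at 450 nm after VCaP cells (15,000/well, DMEM/10% FBS, 37°C) were exposed from day 2 to compound at 9 points, 5-fold serial dilution, top final concentration 10 µM.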

On to `COc1cc(O[C@H]2C(C)(C)[C@H](NC(=O)c3ccc(N4CCC(C)(CN5CCC6(CCc7cc(C(=O)N[C@H]8CCC(=O)NC8=O)c(F)cc7O6)CC5)CC4)cc3)C2(C)C)ccc1C#N` [A-P-31, 1'-((1-((4-((1r,3r)-3-(4-cyano-3-methoxyphenoxy)-2,2,4,4-tetramethylcyclobutyl)carbamoyl)phenyl)-4-methylpiperidin-4-yl)methyl)-N-((S)-2,6-dioxopiperidin-3-yl)-7-fluorospiro[2,4'-piperidin]-6-carboxamide], for which, at AR protein, the percent AR protein degradation at a fixed concentration at 0.01 µM came to 47% and the percent AR protein degradation at a fixed concentration at 0.1 µM was found to be 71%. The compound also displayed a concentration for half-maximal inhibition (IC50) in the experiment on LNCaP cells of 0.58 µM. Besides, the IC50 in the experiment on VCaP cells stood at 3.17 µM.
For `CC1(C)[C@H](NC(=O)c2ccc(N3CCC(CN4CCC5(CCc6cc(C(=O)N[C@H]7CCC(=O)NC7=O)c(F)cc6O5)CC4)CC3)nc2)C(C)(C)[C@H]1Oc1ccc(C#N)c(Cl)c1` [A-P-50, 1'-((1-(5-(((1R,3R)-3-(3-chloro-4-cyanophenoxy)-2,2,4,4-tetramethylcyclobutyl)carbamoyl)pyridin-2-yl)piperidin-4-yl)methyl)-N-((S)-2,6-dioxopiperidin-3-yl)-7-fluorospiro[chroman-2,4'-piperidin]-6-carboxamide], the “Degradation of AR protein in LNCaP cells, 10 nM (%)” value (shortened to “Degradation … 10 nM (%)”) on AR protein was 73%. Further, the “Degradation of AR protein in LNCaP cells, 100 nM (%)” value (“Degradation … 100 nM (%)” below) on AR protein amounted to 91%. The values for the IC50 in the experiment on LNCaP cells and with VCaP cells were 0.18 µM and 0.051 µM, respectively.
For `C[C@H]1CC2(CCN(c3ccc(N4CCC(CN5CCC6(CC5)COc5ccc7c(c56)n(C)c(=O)n7C5CCC(=O)NC5=O)CC4)cc3)CC2)CN1c1ccc(C#N)c(Cl)c1` (stereo partly drawn) [A-P-26, 2-chloro-4-((3 S)-8-(4-(4-((3-((2,6-dioxopiperidin-3-yl))-1-methyl-2-oxo-2,3-dihydro-1H,7H-spiro[benzofuro[4,5-d]imidazole-8,4'-piperidin]-1'-yl)methyl)piperidin-1-yl)phenyl)-3-methyl-2,8-diazaspiro[4.5]decan-2-yl)benzonitrile], the percent AR protein degradation at a fixed concentration at 0.01 µM on AR protein amounted to 48%. The same compound showed a percent AR protein degradation at a fixed concentration at 0.1 µM on AR protein of 65%. For the same compound, the IC50 in the experiment on LNCaP cells was found to be 4.91 µM; in the experiment with VCaP cells, 0.034 µM.
For `COc1cc(O[C@H]2C(C)(C)[C@H](NC(=O)c3ccc(N4CCC(F)(CN5CC6(CCC7(CC6)COc6c7ccc7c6CN(C6CCC(=O)NC6=O)C7=O)C5)CC4)cc3)C2(C)C)ccc1C#N` (relative stereo) [A-P-5], on AR protein, the “Degradation … 10 nM (%)” value is on record as 43% and the “Degradation … 100 nM (%)” value was 62%. The compound also yielded an IC50 in the experiment on LNCaP cells of 1 µM. The IC50 with VCaP cells was found to be 0.0017 µM.
On to `COc1cc(O[C@H]2C(C)(C)[C@H](NC(=O)c3ccc(N4CCC5(CC4)CC(N4CCC6(CC4)COc4cc7c(cc46)n(C)c(=O)n7C4CCC(=O)NC4=O)C5)cc3)C2(C)C)ccc1C#N` (relative stereo) [A-P-21], for which, at AR protein, the “Degradation … 10 nM (%)” value is 52% and the “Degradation … 100 nM (%)” value turned out to be 55%. In addition, in the experiment with LNCaP cells, the IC50 was 8.23 µM. Further, in the experiment with VCaP cells, the midpoint of inhibition, the IC50, lay at 0.002 µM.
On to `COc1cc(O[C@H]2C(C)(C)[C@H](NC(=O)c3ccc(N4CCC(CN5CCC6(CCc7cc(F)c(C(=O)N[C@H]8CCC(=O)NC8=O)cc7O6)CC5)(OC)CC4)cc3)C2(C)C)ccc1C#N` [A-P-40], for which, at AR protein, the “Degradation … 10 nM (%)” value is reported as 26% and the “Degradation … 100 nM (%)” value came out at 46%. Besides, in the experiment with LNCaP cells, 6.56 µM corresponded to half-maximal inhibition (IC50). The same compound yielded an IC50 in the experiment on VCaP cells of over 10 µM.
For the compound `COc1cc(O[C@H]2C(C)(C)[C@H](NC(=O)c3ccc(N4CCC(C)(CN5CCC6(CC5)COc5c6ccc(C(=O)N[C@H]6CCC(=O)NC6=O)c5F)CC4)cc3)C2(C)C)ccc1C#N` [A-P-85, 1'-((1-(4-(((1r,3r)-3-(4-cyano-3-methoxyphenoxy)-2,2,4,4-tetramethylcyclobutyl)carbamoyl)phenyl)-4-methylpiperidin-4-yl)methyl)-N-((S)-2,6-dioxopiperidin-3-yl)-7-fluoro-2H-spiro[benzofuran-3,4'-piperidin]-6-carboxamide], the “Degradation … 10 nM (%)” value at AR protein worked out at 7%. Also, the “Degradation … 100 nM (%)” value on AR protein is on record as 40%. The IC50 with LNCaP cells was determined as 0.29 µM; with VCaP cells, 0.54 µM.
On the same counts, the results for `COc1cc(O[C@H]2C(C)(C)[C@H](NC(=O)c3ccc(N4CCC(CN5CCC6(CCc7cc(C(=O)N[C@H]8CCC(=O)NC8=O)c(F)cc7O6)CC5)CC4)nn3)C2(C)C)ccc1C#N` [A-P-34, 1'-((1-(6-(((1R,3R)-3-(4-cyano-3-methoxyphenoxy)-2,2,4,4-tetramethylcyclobutyl)carbamoyl)pyridazin-3-yl)piperidin-4-yl)methyl)-N-((S)-2,6-dioxopiperidin-3-yl)-7-fluorospiro[chroman-2,4'-piperidin]-6-carboxamide] are 72%, 85%, 0.87 µM and 0.00029 µM.
For `COc1cc(O[C@H]2C(C)(C)[C@H](NC(=O)c3ccc(N4CCC(CN5CCN6c7ccc(N[C@H]8CCC(=O)NC8=O)cc7OC[C@@H]6C5)CC4)cc3)C2(C)C)ccc1C#N` [A-P-100], at AR protein, the “Degradation … 10 nM (%)” value is given as 1%. In addition, the “Degradation … 100 nM (%)” value on AR protein is given as 48%. Also, the IC50 is 0.38 µM in the experiment on LNCaP cells and 4.7 µM in the experiment on VCaP cells.
For `COc1cc(O[C@H]2C(C)(C)[C@H](NC(=O)c3ccc(N4CCC(CN5CCC6(CC5)COc5c6ccc(C(=O)N[C@H]6CCC(=O)NC6=O)c5F)(OC)CC4)cc3)C2(C)C)ccc1C#N` [A-P-86, 1'-((1-(4-(((1r,3r)-3-(4-cyano-3-methoxyphenoxy)-2,2,4,4-tetramethylcyclobutyl)carbamoyl)phenyl)-4-methoxypiperidin-4-yl)methyl)-N-((S)-2,6-dioxopiperidin-3-yl)-7-fluoro-2H-spiro[benzofuran-3,4'-piperidin]-6-carboxamide], on AR protein, the “Degradation … 10 nM (%)” value came to 37% and the “Degradation … 100 nM (%)” value amounted to 39%. Also, in the experiment on LNCaP cells, inhibition was half-maximal at 0.39 µM (IC50). In the experiment on VCaP cells, this compound returned an IC50 of 1.79 µM.
As to `COc1cc(O[C@H]2C(C)(C)[C@H](NC(=O)c3ccc(N4CCC(CN5CCC6(CCc7cc(C(=O)N[C@H]8CCC(=O)NC8=O)c(F)cc7O6)CC5)CC4)cc3)C2(C)C)ccc1C#N` [A-P-30], at AR protein, the “Degradation … 10 nM (%)” value was determined as 41% and the “Degradation … 100 nM (%)” value was 78%. The same compound displayed an IC50 in the experiment with LNCaP cells of 1.48 µM. 1 µM corresponded to half-maximal inhibition with VCaP cells (IC50).
On the same counts, the results for `CC1(C)[C@H](NC(=O)c2ccc(N3CCC(CN4CCC5(CCc6cc(C(=O)N[C@H]7CCC(=O)NC7=O)c(F)cc6O5)CC4)CC3)nc2)C(C)(C)[C@H]1Oc1ccc(C#N)c(C(F)(F)F)c1` [A-P-45, 1'-((1-(5-(((1R,3R)-3-(4-cyano-3-(trifluoromethyl)phenoxy)-2,2,4,4-tetramethylcyclobutyl)carbamoyl)pyridin-2-yl)piperidin-4-yl)methyl)-N-((S)-2,6-dioxopiperidin-3-yl)-7-fluorospiro[chroman-2,4'-piperidin]-6-carboxamide] are 52%, 85%, 0.57 µM and 0.3 µM.

A word on the IC50: it is the concentration at which inhibition is half-maximal. Lower therefore signals greater potency in that assay.
